Results: patent US20090246292A1, “ANTIMICROBIAL FORMULATIONS COMPRISING A QUINONE AND A COPPER SALT” (priority 2006, published 2009)

What was measured:
Test in all cases: Disc diffusion assay (DDA), also supplemented
Settings in all cases: 200 μg per disc
[1] = tested on: P. acnes PRP-023; assay type: cell-based, Propionibacterium acnes
Method: (§1) The propionibacteria were cultured and maintained on Wilkins-Chalgren Anaerobe Medium (agar and broth) at pH 6.0; all cultures were incubated anaerobically at 37° C. for 72 hours.
(§2) A sterile paper disc was impregnated with a sample of the test compound in a suitable solvent and 30 minutes allowed for the solvents to evaporate (where possible). The disc was then placed on an agar plate onto which the test micro-organism had been inoculated. The plate was then incubated under the conditions described above, following which it was examined visually for signs of bacterial growth. […] The diameter of this zone of “inhibition” was measured using a ProtoCOL™ automated zone sizer (Synbiosis, Cambridge, UK).
(§3) For assays using Propionibacterium spp. strains the supplements used in the examples below were lipid (either Tween™ 80 or triolein, both at 1% v/v) and sodium chloride (100 mM).

[2] = tested on: P. acnes PRP-101; assay type: cell-based, Propionibacterium acnes
Method: as §1, §2, §3

[3] = tested on: P. granulosum PRP-021; assay type: cell-based
Method: as §1, §2, §3

[4] = tested on: P. acnes PRP-039; assay type: cell-based, Propionibacterium acnes
[5] = tested on: P. granulosum PRP-005; assay type: cell-based
Method: as §1, §2, §3

O.O.O.O.O.O=S(=O)([O-])[O-].[Cu+2] [Copper (II) sulphate pentahydrate]
DDA + salt [1]: 51.38 mm | DDA + lipid ([1]; 1% (v/v) triolein): 47.43 mm | DDA ([1]; single replicate): 47.13 mm | DDA ([1]; Table 12 series): 60.95 mm | DDA + salt [2]: 53.21 mm | DDA + lipid ([2]; 1% (v/v) triolein): 55.03 mm | DDA ([2]; single replicate): 45.30 mm | DDA ([2]; Table 12 series): 43.49 mm | DDA + salt [3]: 32.84 mm | DDA + lipid ([3]; 1% (v/v) triolein): 28.28 mm | DDA ([3]; single replicate): 27.67 mm | DDA ([3]; Table 12 series): 29.59 mm | DDA + salt [4]: 61.72 mm | DDA + lipid ([4]; 1% (v/v) triolein): 59.29 mm | DDA ([4]; single replicate): 53.51 mm | DDA ([4]; Table 12 series): 56.35 mm | DDA + salt [5]: 29.19 mm | DDA + lipid ([5]; 1% (v/v) triolein): 24.32 mm | DDA ([5]; single replicate): 24.02 mm | DDA ([5]; Table 12 series): 22.48 mm
